Consider 29 compounds from ChEMBL document CHEMBL5380836, “Design and Structural Optimization of Methionine Adenosyltransferase 2A (MAT2A) Inhibitors with High In Vivo Potency and Oral Bioavailability” (J Med Chem, 2023).

Where only a bound is given, the exact number is not on record here.

Data set [1] concerns HCT-116. In words: Antiproliferative activity against human HCT-116 cells expressing MTAP-/- assessed as inhibition of cell proliferation incubated for 4 days by fluorescence based assay. The class given is functional. The note with it: HCT-116, 96 h.
Data set [2] deals with S-adenosylmethionine synthase isoform type-2 (Homo sapiens, UniProt P31153). As to the kind of experiment: Inhibition of recombinant MAT2A (unknown origin) expressed in baculovirus infected Sf9 insect cells using L-methionine as substrate preincubated for 15 mins followed by substrate addition measured after 60 mins by Kinase-Glo Luminescent assay.
Chain of S-adenosylmethionine synthase isoform type-2 (P31153 whole entry, canonical isoform): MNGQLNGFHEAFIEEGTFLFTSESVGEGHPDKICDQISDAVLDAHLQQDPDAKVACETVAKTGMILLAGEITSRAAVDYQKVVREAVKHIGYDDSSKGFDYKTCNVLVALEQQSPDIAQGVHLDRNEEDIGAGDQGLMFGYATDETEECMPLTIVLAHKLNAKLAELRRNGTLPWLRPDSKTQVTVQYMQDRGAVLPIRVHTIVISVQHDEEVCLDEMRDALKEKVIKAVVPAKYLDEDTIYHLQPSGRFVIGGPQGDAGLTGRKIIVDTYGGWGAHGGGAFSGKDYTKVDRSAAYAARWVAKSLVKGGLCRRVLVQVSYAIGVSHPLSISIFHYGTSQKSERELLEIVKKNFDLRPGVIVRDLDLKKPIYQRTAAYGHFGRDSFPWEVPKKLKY
Data set [3] can be described thus: Half life in ICR mouse at 10 mg/kg, po via gavage measured for 0.083 to 24 hrs by LC-MS analysis. Conditions: in vivo, time 0.083-24 hrs. The class given is ADME, organism-based.
Data set [4] is described as follows: Cmax in ICR mouse at 10 mg/kg, po via gavage measured for 0.083 to 24 hrs by LC-MS analysis. It is filed as ADME, organism-based. The arrangement: time upper 24 hrs, dose 10 mg/kg, time lower 0.083 hrs, route po. The note with it: in vivo.
Data set [5] in a line: AUC in ICR mouse at 10 mg/kg, po via gavage measured for 0.083 to 24 hrs by LC-MS analysis. The class given is ADME, organism-based. More on the design: dose 10 mg/kg, time upper 24 hrs, time lower 0.083 hrs, route po. The note with it: in vivo.
A short description of data set [6]: Tmax in ICR mouse at 10 mg/kg, po via gavage measured for 0.083 to 24 hrs by LC-MS analysis. The class given is ADME, organism-based. Conditions: in vivo, time 0.083-24 hrs.
A short description of data set [7]: Volume of distribution at steady state in ICR mouse at 1 mg/kg, iv measured for 0.083 to 24 hrs by LC-MS analysis. The class given is ADME, organism-based. The note with it: in vivo, time 0.083-24 hrs, read-out: Vdss.
The nature of data set [8]: AUC in ICR mouse at 1 mg/kg, iv measured for 0.083 to 24 hrs by LC-MS analysis. More on the design: time upper 24 hrs, time lower 0.083 hrs, dose 1 mg/kg, route iv. It is filed as ADME, organism-based. Conditions: in vivo.
Data set [9] can be described thus: Half life in ICR mouse at 1 mg/kg, iv measured for 0.083 to 24 hrs by LC-MS analysis. It is filed as ADME, organism-based. The note with it: in vivo, time 0.083-24 hrs.
Data set [10] is described as follows: Clearance in ICR mouse at 1 mg/kg, iv measured for 0.083 to 24 hrs by LC-MS analysis. The note with it: in vivo, time 0.083-24 hrs. The class given is ADME, organism-based.
A short description of data set [11]: Oral bioavailability in ICR mouse at 10 mg/kg administered via gavage measured for 0.083 to 24 hrs by LC-MS analysis. It is filed as ADME, organism-based. The note with it: in vivo, time 0.083-24 hrs.
The subject of data set [12] is HCT-116. In words: Antiproliferative activity against human HCT-116 cells assessed as inhibition of cell proliferation incubated for 4 days by fluorescence based assay. It is filed as functional. Conditions: HCT-116, 96 h.
Data set [13] has as its system HCT-116. As to the kind of experiment: Antitumor activity against human HCT-116 cells expressing MTAP-/- xenografted in BALB/c mouse assessed as tumor growth inhibition at 50 mg/kg, po qd measured for 18 days relative to control. It is filed as functional. Conditions: HCT-116, 432 h, time 18 day, read-out: TGI.

For `CCOc1ccc2cc(-c3ccc4nn(C)cc4c3)c(=O)n(-c3ccc(OC(F)F)cc3)c2c1`, the IC50 in the data set on HCT-116 [1] stood at 355 nM; in data set [2], 34 nM.

As to `CCOc1ncc2cc(-c3ccc4nn5c(c4c3)C(=O)N(C)CC5)c(=O)n(-c3ccc(OC(F)F)cc3)c2n1`, the IC50 in the data set with HCT-116 [1] worked out at 80 nM; in data set [2] it was 23 nM.

`CCOc1ncc2nc(-c3ccc4nn(C)cc4c3)c(=O)n(-c3ccc(OC(F)F)cc3)c2n1`: the 50% inhibitory concentration (IC50) amounted to 387 nM with HCT-116 [1] and 39 nM in data set [2].

Consider `CCOc1ncc2cc(-c3ccc4nc5n(c4c3)CCN(C(C)=O)C5)c(=O)n(-c3ccc(OC(F)F)cc3)c2n1`, for which the IC50 came out at 118 nM in the data set with HCT-116 [1] and 52 nM in data set [2].

`CCOc1ncc2cc(-c3cc4c5c(c3)ncn5CCO4)c(=O)n(-c3ccc(OC(F)F)cc3)c2n1`: the figures for the IC50 (in the data set on HCT-116 [1]; in data set [2]) were 447 nM and 72 nM, respectively.

With `CCOc1ncc2cc(-c3ccc4c(c3)OCC3(CCN(C)CC3)O4)c(=O)n(-c3ccc(OC(F)F)cc3)c2n1`, the IC50 in the data set with HCT-116 [1] was more than 10000 nM; in data set [2], more than 1000 nM.

For `CN1CCn2c(nc3ccc(-c4cc5cnc(C6CC6)nc5n(-c5ccc(OC(F)F)cc5)c4=O)cc32)C1`, the IC50 in the data set with HCT-116 [1] was 34 nM; in [2] it was 14 nM. Moreover, the half-life in [3] is 4 h. The compound also gave a Cmax in [4] of 1740 ng/mL. The same compound registered an AUC in [5] of 11400 ng·h/mL. The Tmax in data set [6] came out at 0.5 h.

With `CCOc1ncc2cc(-c3ccc4nn5c(c4c3)CN(C)CC5)c(=O)n(-c3ccc(OC(F)F)cc3)c2n1`, the IC50 was found to be 56 nM in the data set on HCT-116 [1] and 20 nM in [2].

`CN1CCn2c(nc3ccc(-c4cc5cnc(N6CCCC6)nc5n(-c5ccc(OC(F)F)cc5)c4=O)cc32)C1`: the IC50 is more than 10000 nM with HCT-116 [1] and more than 1000 nM in data set [2].

For `CCOc1ncc2cc(-c3ccc4nc5n(c4c3)CCN(C)C5)c(=O)n(-c3ccc(OC(F)F)cc3)c2n1`, the IC50 with HCT-116 [1] was determined as 52 nM; in [2], 18 nM. Besides, in data set [7], the Vd worked out at 2.18 L/kg. The half-life is 3.3 h in [3] and 2.4 h in data set [9]. For the same compound, the AUC in data set [8] came to 990 ng·h/mL; in [5], 11500 ng·h/mL. The compound further showed a Cmax in [4] of 2300 ng/mL. The same compound had a clearance in [10] of 17.1 mL/min/kg. Further, the bioavailability in data set [11] came out at 116%. In addition, the Tmax in data set [6] is 0.83 h.

In the case of `CC(C)Oc1ncc2cc(-c3ccc4nc5n(c4c3)CCN(C)C5)c(=O)n(-c3ccc(OC(F)F)cc3)c2n1`, the IC50 turned out to be 84 nM in the data set on HCT-116 [1] and 27 nM in data set [2].

For `CN1CCn2c(nc3ccc(-c4cc5cnc(N6CCC6)nc5n(-c5ccc(OC(F)F)cc5)c4=O)cc32)C1`, the IC50 came to 6120 nM in the data set with HCT-116 [1] and 324 nM in data set [2].

Consider `CCOc1ncc2cc(-c3ccc4c(c3)nc3n4CCN(C)C3)c(=O)n(-c3ccc(OC(F)F)cc3)c2n1`, for which the IC50 in the data set with HCT-116 [1] was found to be 3110 nM; in [2], 394 nM.

Take `CCOc1ncc2cc(-c3ccc4nc5n(c4c3)CCN(C(C)C)C5)c(=O)n(-c3ccc(OC(F)F)cc3)c2n1`: the IC50 with HCT-116 [1] was 53 nM; in data set [2], 17 nM.

In the case of `CN1CCn2c(nc3ccc(-c4cc5cnc(OCC(F)F)nc5n(-c5ccc(OC(F)F)cc5)c4=O)cc32)C1`, the values for the IC50 (with HCT-116 [1]; in data set [2]) were 159 nM and 37 nM, respectively.

On to `COc1ncc2cc(-c3ccc4nc5n(c4c3)CCN(C)C5)c(=O)n(-c3ccc(OC(F)F)cc3)c2n1`, for which the results for the IC50 (in the data set on HCT-116 [1]; in [2]) were 484 nM and 64 nM, respectively.

Turning to `CN1CCn2c(nc3ccc(-c4cc5cnc(NCC(F)(F)F)nc5n(-c5ccc(OC(F)F)cc5)c4=O)cc32)C1`, the IC50 with HCT-116 [1] was found to be 166 nM; in data set [2] it was 34 nM.

Turning to `CCNc1ncc2cc(-c3ccc4nc5n(c4c3)CCN(C)C5)c(=O)n(-c3ccc(OC(F)F)cc3)c2n1`, the IC50 with HCT-116 [1] amounted to 42 nM; in [2], 14 nM. In data set [3], this compound gave a half-life of 2.9 h. This compound also came in with a Cmax in data set [4] of 1050 ng/mL. The same compound displayed an AUC in [5] of 3200 ng·h/mL. In addition, in data set [6], the Tmax came out at 0.33 h.

With `CCOc1ncc2cc(-c3ccc4nc5n(c4c3)CCN(C)C5)c(=O)n(-c3ccc(OC)nc3)c2n1`, the IC50 with HCT-116 [1] is 792 nM; in data set [2] it was 132 nM.

`CCOc1ccc2c(=O)n(-c3ccc4nn5c(c4c3)CN(C)CC5)c(=O)n(-c3ccc(OC(F)F)cc3)c2n1`: the IC50 in the data set on HCT-116 [12] is more than 10000 nM; in the data set with HCT-116 [1] it was 82 nM; in data set [2] it was 28 nM.

As to `CCOc1ncc2c(n1)n(-c1ccc(OC(F)F)cc1)c(=O)n2Cc1ccc2nn(C)cc2c1`, the IC50 in the data set with HCT-116 [1] is more than 10000 nM; in [2], more than 1000 nM.

For the compound `CCOc1ncc2cc(-c3ccc4nc5n(c4c3)CCN(CC3COC3)C5)c(=O)n(-c3ccc(OC(F)F)cc3)c2n1`, the values for the IC50 (in the data set with HCT-116 [1]; in data set [2]) were 67 nM and 23 nM, respectively.

For the compound `CCOc1ncc2cc(-c3ccc4nc5n(c4c3)CCN(C)C5)c(=O)n(-c3ccc(Cl)cc3)c2n1`, the values for the IC50 (in the data set on HCT-116 [1]; in data set [2]) were 119 nM and 51 nM, respectively.

For `CCOc1ncc2cc(-c3ccc4nc5n(c4c3)CCN(CCOC)C5)c(=O)n(-c3ccc(OC(F)F)cc3)c2n1`, the IC50 with HCT-116 [1] turned out to be 50 nM; in [2], 17 nM.

On to `COc1ccc(-c2c(Nc3ccccn3)[nH]c3c(C4=CCCCC4)c(-c4ccccc4)nn3c2=O)cc1`, for which, in the data set with HCT-116 [13], the inhibition in vivo at 50 mg/kg worked out at 34%. In addition, in the data set with HCT-116 [1], the IC50 stood at 244 nM.

With `Cn1cc2cc(-n3cc4cnc(NCC(F)(F)F)nc4c(-c4ccc(Cl)cc4)c3=O)ccc2n1`, the results for the IC50 (in the data set on HCT-116 [1]; in data set [2]) were 145 nM and 32 nM, respectively.

Consider `CCOc1ccc2cc(-c3ccc4c(c3)C3(CC3)CO4)c(=O)n(-c3ccc(OC(F)F)cc3)c2c1`, for which the IC50 in the data set on HCT-116 [1] came out at 315 nM; in data set [2] it was 63 nM.

On to `CCOc1ncc2cc(-c3ccc4ncn5c4c3OCC5)c(=O)n(-c3ccc(OC(F)F)cc3)c2n1`, for which the IC50 was more than 10000 nM in the data set with HCT-116 [1] and more than 1000 nM in data set [2].

For `CCOc1ncc2cc(-c3ccc4nc5n(c4c3)CCN(CC#N)C5)c(=O)n(-c3ccc(OC(F)F)cc3)c2n1`, the IC50 with HCT-116 [1] worked out at 56 nM; in data set [2] it was 20 nM.
